One assay addresses CDK2/Cyclin E (Homo sapiens, UniProt P24941). Put plainly: CDK2/Cyclin E biochemical phosphorylation assay (Caliper mobility shift). The following applies: apparent IC50; 1.0 mM ATP or ATP Km; 1.25 nM enzyme; 25° C.; read-out: CDK2/cyclin E1 IC50. Summed up: (§1)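 7.5 µM 5-FAM-QSPKKG-CONH2 peptide phosphorylated by CDK2/Cyclin E (1.25 nM) or GST-CDK1/Cyclin B1 (1.5 nM) at 1.0 mM ATP or ATP Km, in HEPES pH 7.5, MgCl2, Brij-35, DTT, 1% DMSO, 25 °C to 10–20% conversion. EDTA stop; Caliper mobility-shift readout; apparent IC50 from percent activity vs log concentration.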

For the next assay, the target named is T1, CDK1/Cyclin B1, GST-tag (Homo sapiens, UniProt P06493).
T1 construct: GST
T1 sequence (P06493 whole entry): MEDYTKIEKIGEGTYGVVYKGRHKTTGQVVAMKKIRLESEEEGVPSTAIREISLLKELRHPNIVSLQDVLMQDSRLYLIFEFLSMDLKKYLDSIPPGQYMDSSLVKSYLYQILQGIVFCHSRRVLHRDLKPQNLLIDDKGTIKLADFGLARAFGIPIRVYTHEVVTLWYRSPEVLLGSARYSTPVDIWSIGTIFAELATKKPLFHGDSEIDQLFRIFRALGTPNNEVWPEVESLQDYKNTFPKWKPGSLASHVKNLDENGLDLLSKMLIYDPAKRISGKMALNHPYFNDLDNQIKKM
T1 sequence (P14635 whole entry partner): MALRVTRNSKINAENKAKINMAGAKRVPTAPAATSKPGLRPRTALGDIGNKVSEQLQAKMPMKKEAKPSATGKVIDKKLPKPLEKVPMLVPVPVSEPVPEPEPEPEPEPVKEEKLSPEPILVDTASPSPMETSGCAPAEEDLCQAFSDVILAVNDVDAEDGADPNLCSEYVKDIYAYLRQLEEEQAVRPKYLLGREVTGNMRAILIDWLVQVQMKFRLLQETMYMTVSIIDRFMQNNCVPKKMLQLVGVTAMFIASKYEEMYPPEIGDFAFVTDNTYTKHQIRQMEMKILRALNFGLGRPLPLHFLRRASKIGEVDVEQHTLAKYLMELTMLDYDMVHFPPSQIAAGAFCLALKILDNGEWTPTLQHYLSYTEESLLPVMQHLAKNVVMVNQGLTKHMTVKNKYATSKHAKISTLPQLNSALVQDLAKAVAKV
Put plainly: CDK1/Cyclin B1 biochemical phosphorylation assay (Caliper mobility shift). To be noted: apparent IC50; 1.0 mM ATP or ATP Km; 1.5 nM enzyme; 25° C. Summed up: as §1

Data on 9 compounds can be found in patent US11970498B2, “CDK2 inhibitors” (BLUEPRINT MEDICINES CORPORATION, priority 2021, dated 2024).

Consider `FC(F)Oc1cc(Nc2cnc3c(Cl)nn(CC4CCOCC4)c3n2)n[nH]1` [Example 56, 3-chloro-N-(5-(difluoromethoxy)-1H-pyrazol-3-yl)-1-((tetrahydro-2H-pyran-4-yl)methyl)-1H-pyrazolo[3,4-b]pyrazin-6-amine], for which the IC50 at CDK2/Cyclin E is 10 to 20 nM; at CDK1/Cyclin B1, GST-tag it was not below 500 nM.

On to `FC(F)Oc1cc(Nc2cnc3cnn(CC4(F)CCOCC4)c3n2)n[nH]1` [Example 112, N-(5-(difluoromethoxy)-1H-pyrazol-3-yl)-1-((4-fluorotetrahydro-2H-pyran-4-yl)methyl)-1H-pyrazolo[3,4-b]pyrazin-6-amine], for which the IC50 at CDK2/Cyclin E is 20 to 30 nM; on CDK1/Cyclin B1, GST-tag it was not below 500 nM.

In the case of `FC(F)Oc1cc(Nc2cnc3cnn([C@H](C4CCOCC4)C4CC4)c3n2)n[nH]1` (single isomer, unassigned) [Example 158, (R)-1-(cyclopropyl(tetrahydro-2H-pyran-4-yl)methyl)-N-(5-(difluoromethoxy)-1H-pyrazol-3-yl)-1H-pyrazolo[3,4-b]pyrazin-6-amine or (S)-1-(cyclopropyl(tetrahydro-2H-pyran-4-yl)methyl)-N-(5-(difluoromethoxy)-1H-pyrazol-3-yl)-1H-pyrazolo[3,4-b]pyrazin-6-amine], the IC50 is 30 to 100 nM on CDK2/Cyclin E and not below 500 nM on CDK1/Cyclin B1, GST-tag.

For the compound `Fc1ccccc1Cn1ncc2ncc(Nc3cc(OC(F)F)[nH]n3)nc21` [Example 37, N-(5-(difluoromethoxy)-1H-pyrazol-3-yl)-1-(2-fluorobenzyl)-1H-pyrazolo[3,4-b]pyrazin-6-amine], the IC50 on CDK2/Cyclin E is 20 to 30 nM; at CDK1/Cyclin B1, GST-tag, not below 500 nM.

Consider `FC[C@H](c1cccnc1)n1ncc2ncc(Nc3cc(OC(F)F)[nH]n3)nc21` (single isomer, unassigned) [Example 18, (S)—N-(5-(difluoromethoxy)-1H-pyrazol-3-yl)-1-(2-fluoro-1-(pyridin-3-yl)ethyl)-1H-pyrazolo[3,4-b]pyrazin-6-amine or (R)—N-(5-(difluoromethoxy)-1H-pyrazol-3-yl)-1-(2-fluoro-1-(pyridin-3-yl)ethyl)-1H-pyrazolo[3,4-b]pyrazin-6-amine], for which the IC50 is 20 to 30 nM at CDK2/Cyclin E and not below 500 nM at CDK1/Cyclin B1, GST-tag.

Turning to `FC(F)Oc1cc(Nc2cnc3cnn([C@@H](c4cccnc4)C4CC4)c3n2)n[nH]1` (single isomer, unassigned) [Example 147, (R)-1-(cyclopropyl(pyridin-3-yl)methyl)-N-(5-(difluoromethoxy)-1H-pyrazol-3-yl)-1H-pyrazolo[3,4-b]pyrazin-6-amine or (S)-1-(cyclopropyl(pyridin-3-yl)methyl)-N-(5-(difluoromethoxy)-1H-pyrazol-3-yl)-1H-pyrazolo[3,4-b]pyrazin-6-amine], the IC50 at CDK2/Cyclin E is not above 10 nM; on CDK1/Cyclin B1, GST-tag, not below 500 nM.

Regarding `OC1(Cn2ncc3ncc(Nc4cc(OC(F)F)[nH]n4)nc32)CCC1` [Example 125, 1-((6-((5-(difluoromethoxy)-1H-pyrazol-3-yl)amino)-1H-pyrazolo[3,4-b]pyrazin-1-yl)methyl)cyclobutan-1-ol], the IC50 on CDK2/Cyclin E is 20 to 30 nM; at CDK1/Cyclin B1, GST-tag it was not below 500 nM.

Regarding `CC[C@@H](c1ccccn1)n1ncc2ncc(Nc3cc(OC(F)F)[nH]n3)nc21` [Example 97, (S)-N-(5-(difluoromethoxy)-1H-pyrazol-3-yl)-1-(1-(pyridin-2-yl)propyl)-1H-pyrazolo[3,4-b]pyrazin-6-amine], the IC50 at CDK2/Cyclin E was not above 10 nM; at CDK1/Cyclin B1, GST-tag, not below 500 nM.

Consider `COc1cc(Nc2cnc3cnn(C(C)c4cccnn4)c3n2)n[nH]1` (single isomer, unassigned) [Example 32, (S)—N-(5-methoxy-1H-pyrazol-3-yl)-1-(1-(pyridazin-3-yl)ethyl)-1H-pyrazolo[3,4-b]pyrazin-6-amine or (R)—N-(5-methoxy-1H-pyrazol-3-yl)-1-(1-(pyridazin-3-yl)ethyl)-1H-pyrazolo[3,4-b]pyrazin-6-amine], for which the IC50 on CDK2/Cyclin E is 20 to 30 nM; at CDK1/Cyclin B1, GST-tag, not below 500 nM.
